Source: patent US20070128217A1 (priority 2003, published 2007)

Tests used:
[1] = tested on: rabbit serum obtained by immunizing a rabbit with the SARS-CoV strain Frankfurt 1; format: binding; design: Binding of a rabbit serum to linear peptides / Binding of a rabbit serum to looped peptides / Rabbit serum linear peptides / Rabbit serum looped peptides / Binding of a rabbit serum to linear peptides of protein N of SARS-CoV Urbani (Rabbit serum linear peptides) / Binding of a rabbit serum to looped/cyclic peptides of protein N of SARS-CoV Urbani (Rabbit serum looped peptides): unit not given here
[2] = tested on: antibodies in sera from SARS patients (sera 1a, 1b, 2, 6, 37, 62, London, SARS-yellow, SARS-green); format: binding, human; design: Binding of serum 6 to linear peptides of protein X1 of SARS-CoV Urbani / Binding of serum 37 to linear peptides of protein X1 of SARS-CoV Urbani / Binding of serum 6 to looped/cyclic peptide (PEPSCAN-ELISA) / Binding of serum 37 to looped/cyclic peptide (PEPSCAN-ELISA) / Binding of serum 37 to looped/cyclic peptides of protein X1 of SARS-CoV Urbani / Binding of serum 6 to linear peptides of protein X2 / Binding of serum 37 to linear peptides of protein X2 / Binding of serum 37 to looped/cyclic peptides of protein X2 of SARS-CoV Urbani / Binding of serum 6 to linear peptides of protein M of SARS-CoV Urbani / Binding of serum 37 to linear peptides of protein M of SARS-CoV Urbani / Binding of serum 6 to looped/cyclic peptides of protein M of SARS-CoV Urbani / Binding of serum 37 to looped/cyclic peptides of protein M of SARS-CoV Urbani / Binding of serum 6 to linear peptides of protein X3 of SARS-CoV Urbani / Binding of serum 37 to linear peptides of protein X3 of SARS-CoV Urbani / Binding of serum 37 to looped/cyclic peptides of protein X3 of SARS-CoV Urbani / Binding of serum 6 to linear peptides of protein X4 of SARS-CoV Urbani / Binding of serum 37 to linear peptides of protein X4 of SARS-CoV Urbani / Binding of serum 37 to looped/cyclic peptides of protein X4 of SARS-CoV Urbani / Binding of serum 6 to linear peptides of protein X5 of SARS-CoV Urbani / Binding of serum 37 to linear peptides of protein X5 of SARS-CoV Urbani / Binding of serum 37 to looped/cyclic peptides of protein X5 of SARS-CoV Urbani / Binding of serum 6 to linear peptides of protein N of SARS-CoV Urbani / Binding of serum 37 to linear peptides of protein N of SARS-CoV Urbani / Binding of serum 6 to linear peptide (PEPSCAN-ELISA) / Binding of serum 1a to looped/cyclic peptides of protein N of SARS-CoV Urbani / Binding of serum 1b to looped/cyclic peptides of protein N of SARS-CoV Urbani / Binding of serum 2 to looped/cyclic peptides of protein N of SARS-CoV Urbani / Binding of serum 6 to looped/cyclic peptides of protein N of SARS-CoV Urbani / Binding of serum 37 to looped/cyclic peptides of protein N of SARS-CoV Urbani / Binding of serum 62 to looped/cyclic peptides of protein N of SARS-CoV Urbani / Binding of serum London to looped/cyclic peptides of protein N of SARS-CoV Urbani / Binding of serum SARS-green to looped/cyclic peptides of protein N of SARS-CoV Urbani: unit not given here
[3] = tested on: control sera (pooled serum of ten healthy LUMC hospital workers; commercial negative donor pooled serum from the Dutch bloodbank); format: binding, human; design: Binding of Control serum LUMC to linear peptides / Binding of Control serum Blood-bank to linear peptides / Binding of Control serum LUMC to looped peptides / Binding of Control Serum Blood-Bank to Looped peptides / Binding of Control serum LUMC to linear peptides of the protein M of SARS-CoV Urbani / Binding of Control serum Blood-bank to linear peptides of the protein M of SARS-CoV Urbani / Binding of Control serum LUMC to looped peptides of the protein M of SARS-CoV Urbani / Binding of Control Serum Blood-Bank to Looped peptides of the protein M of SARS-CoV Urbani: unit not given here

With TIDGSSGVANPAMDP as the sequence, how does the “Binding of a rabbit serum to linear peptides” value [1] read?
The value was 0.1.

And the “Binding of a rabbit serum to looped peptides” value [1]?
The value was 0.4.

What about the “Binding of serum 1a to linear peptides of protein X1 of SARS-CoV Urbani” value [2] of the same sequence?
Its value is 0.6.

And the “Binding of serum 1a to looped/cyclic peptides of protein X1 of SARS-CoV Urbani” value [2]?
Its value is 0.5.

What about the “Binding of serum 1b to linear peptides of protein X1 of SARS-CoV Urbani” value [2] of the same sequence?
The value was 0.6.

What about the “Binding of serum 1b to looped/cyclic peptides of protein X1 of SARS-CoV Urbani” value [2] of the same sequence?
The value was 0.4.

And the “Binding of serum 2 to linear peptides of protein X1 of SARS-CoV Urbani” value [2]?
Its value is 0.6.

What about the “Binding of serum 2 to looped/cyclic peptides of protein X1 of SARS-CoV Urbani” value [2] of the same sequence?
The value was 0.4.

What about the “Binding of serum 6 to linear peptides of protein X1 of SARS-CoV Urbani” value [2] of the same sequence?
Its value is 0.6.

What about the “Binding of serum 6 to looped/cyclic peptides of protein X1 of SARS-CoV Urbani” value [2] of the same sequence?
The value was 0.3.

What about the “Binding of serum 37 to linear peptides of protein X1 of SARS-CoV Urbani” value [2] of the same sequence?
Its value is 0.6.

And the “Binding of serum 37 to looped/cyclic peptides of protein X1 of SARS-CoV Urbani” value [2]?
The value was 0.3.

What about the “Binding of serum 62 to linear peptides of protein X1 of SARS-CoV Urbani” value [2] of the same sequence?
The value was 0.6.

What about the “Binding of serum 62 to looped/cyclic peptides of protein X1 of SARS-CoV Urbani” value [2] of the same sequence?
The value was 0.3.

And the “Binding of serum London to linear peptides of protein X1 of SARS-CoV Urbani” value [2]?
Its value is 0.4.

And the “Binding of serum London to looped/cyclic peptides of protein X1 of SARS-CoV Urbani” value [2]?
The value was 0.2.

And the “Binding of serum SARS-green to linear peptides of protein X1 of SARS-CoV Urbani” value [2]?
Its value is 0.4.

What about the “Binding of serum SARS-green to looped/cyclic peptides of protein X1 of SARS-CoV Urbani” value [2] of the same sequence?
The value was 0.3.

And the “Binding of serum SARS-yellow to linear peptides of protein X1 of SARS-CoV Urbani” value [2]?
Its value is 0.3.

And the “Binding of serum SARS-yellow to looped/cyclic peptides of protein X1 of SARS-CoV Urbani” value [2]?
Its value is 0.2.

What about the “Binding of Control Serum Blood-Bank to Looped peptides” value [3] of the same sequence?
Its value is 0.4.

And the “Binding of Control serum Blood-bank to linear peptides” value [3]?
The value was 0.4.

What about the “Binding of Control serum LUMC to linear peptides” value [3] of the same sequence?
The value was 0.6.

What about the “Binding of Control serum LUMC to looped peptides” value [3] of the same sequence?
The value was 0.4.

RRRLLACLCKHKKVS was tested. Which “Binding of a rabbit serum to linear peptides” value [1] did it give?
Its value is 0.5.

And the “Binding of a rabbit serum to looped peptides” value [1]?
Its value is 0.2.

And the “Binding of serum 1a to looped/cyclic peptides of protein X2 of SARS-CoV Urbani” value [2]?
The value was 0.2.

What about the “Binding of serum 1b to looped/cyclic peptides of protein X2 of SARS-CoV Urbani” value [2] of the same sequence?
The value was 0.1.

And the “Binding of serum 2 to looped/cyclic peptides of protein X2 of SARS-CoV Urbani” value [2]?
Its value is 0.0.

What about the “Binding of serum 6 to looped/cyclic peptides of protein X2 of SARS-CoV Urbani” value [2] of the same sequence?
Its value is 0.1.

And the “Binding of serum 37 to looped/cyclic peptides of protein X2 of SARS-CoV Urbani” value [2]?
Its value is 0.2.

And the “Binding of serum 62 to looped/cyclic peptides of protein X2 of SARS-CoV Urbani” value [2]?
Its value is 0.3.

What about the “Binding of serum London to looped/cyclic peptides of protein X2 of SARS-CoV Urbani” value [2] of the same sequence?
The value was 0.1.

What about the “Binding of serum SARS-green to looped/cyclic peptides of protein X2 of SARS-CoV Urbani” value [2] of the same sequence?
Its value is 0.1.

And the “Binding of serum SARS-yellow to looped/cyclic peptides of protein X2 of SARS-CoV Urbani” value [2]?
Its value is 0.1.

And the “Recognition of the peptide by sera of SARS-CoV infected individuals, and form (linear, looped/cyclic) in which it is recognized” value [2]?
The value was “recognized in linear form”.

And the “Binding of Control Serum Blood-Bank to Looped peptides” value [3]?
The value was 0.3.

And the “Binding of Control serum Blood-bank to linear peptides” value [3]?
The value was 0.7.

What about the “Binding of Control serum LUMC to linear peptides” value [3] of the same sequence?
The value was 0.6.

And the “Binding of Control serum LUMC to looped peptides” value [3]?
The value was 0.2.

With IKLVFLWLLWPVTLA as the sequence, how does the “Rabbit serum linear peptides” value [1] read?
The value was 0.3.

What about the “Rabbit serum looped peptides” value [1] of the same sequence?
The value was 0.0.

And the “Binding of serum 1a to linear peptides of protein M of SARS-CoV Urbani” value [2]?
The value was 0.7.

And the “Binding of serum 1a to looped/cyclic peptides of protein M of SARS-CoV Urbani” value [2]?
The value was 0.7.

And the “Binding of serum 1b to linear peptides of protein M of SARS-CoV Urbani” value [2]?
The value was 0.5.

What about the “Binding of serum 1b to looped/cyclic peptides of protein M of SARS-CoV Urbani” value [2] of the same sequence?
Its value is 0.8.

What about the “Binding of serum 2 to linear peptides of protein M of SARS-CoV Urbani” value [2] of the same sequence?
Its value is 0.7.

And the “Binding of serum 2 to looped/cyclic peptides of protein M of SARS-CoV Urbani” value [2]?
Its value is 0.6.

What about the “Binding of serum 6 to linear peptides of protein M of SARS-CoV Urbani” value [2] of the same sequence?
The value was 0.5.

And the “Binding of serum 6 to looped/cyclic peptides of protein M of SARS-CoV Urbani” value [2]?
The value was 0.9.

What about the “Binding of serum 37 to linear peptides of protein M of SARS-CoV Urbani” value [2] of the same sequence?
Its value is 0.6.

And the “Binding of serum 37 to looped/cyclic peptides of protein M of SARS-CoV Urbani” value [2]?
Its value is 0.8.

And the “Binding of serum 62 to linear peptides of protein M of SARS-CoV Urbani” value [2]?
The value was 0.7.

And the “Binding of serum 62 to looped/cyclic peptides of protein M of SARS-CoV Urbani” value [2]?
Its value is 0.8.

And the “Binding of serum London to linear peptides of protein M of SARS-CoV Urbani” value [2]?
The value was 0.6.

And the “Binding of serum London to looped/cyclic peptides of protein M of SARS-CoV Urbani” value [2]?
The value was 0.3.

And the “Binding of serum SARS-green to linear peptides of protein M of SARS-CoV Urbani” value [2]?
The value was 0.3.

And the “Binding of serum SARS-green to looped/cyclic peptides of protein M of SARS-CoV Urbani” value [2]?
The value was 0.3.

What about the “Binding of serum SARS-yellow to linear peptides of protein M of SARS-CoV Urbani” value [2] of the same sequence?
Its value is 0.1.

And the “Binding of serum SARS-yellow to looped/cyclic peptides of protein M of SARS-CoV Urbani” value [2]?
Its value is 0.5.

And the “Binding of Control Serum Blood-Bank to Looped peptides of the protein M of SARS-CoV Urbani” value [3]?
The value was 0.9.

And the “Binding of Control serum Blood-bank to linear peptides of the protein M of SARS-CoV Urbani” value [3]?
The value was 0.7.

And the “Binding of Control serum LUMC to linear peptides of the protein M of SARS-CoV Urbani” value [3]?
Its value is 0.4.

What about the “Binding of Control serum LUMC to looped peptides of the protein M of SARS-CoV Urbani” value [3] of the same sequence?
The value was 0.7.
